Measurements as given in PubChem BioAssay AID1963977 (Molecular Pharmacology Branch, DTP, NCI, 2024).
pIC50: −log10 of the molar value.

System: 624824-186-R-J3-PDC multicell spheroids, viability
Test: Anticancer human tumor 624824-186-R-J3-PDC patient-derived colon adenocarcinoma cell line growth inhibition [PI3K]
Settings: for pIC50: curve of first compound; for viability, T/C: stronger effect = lower value
Method in brief: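 Agents were dosed from a top concentration near clinical Cmax (otherwise 10 microM) in half-log decrements, alone or combined with PI3K inhibitors. The spheroids contain tumor cells plus endothelial (HUVEC) and MSC stroma; viability is measured.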

[1] = second compound 0.0316 µM, first compound 0.0316 µM
[2] = second compound 0.0316 µM, first compound 0.1 µM
[3] = second compound 0.0316 µM, first compound 0.316 µM
[4] = second compound 0.0316 µM, first compound 1 µM
[5] = second compound 0.0316 µM, first compound 3.16 µM
[6] = second compound 0.0316 µM, first compound 10 µM
[7] = second compound 0.1 µM, first compound 0.0316 µM
[8] = second compound 0.1 µM, first compound 0.1 µM
[9] = second compound 0.1 µM, first compound 0.316 µM
[10] = second compound 0.1 µM, first compound 1 µM
[11] = second compound 0.1 µM, first compound 3.16 µM
[12] = second compound 0.1 µM, first compound 10 µM
[13] = second compound 0.316 µM, first compound 0.0316 µM
[14] = second compound 0.316 µM, first compound 0.1 µM
[15] = second compound 0.316 µM, first compound 0.316 µM
[16] = second compound 0.316 µM, first compound 1 µM
[17] = second compound 0.316 µM, first compound 3.16 µM
[18] = second compound 0.316 µM, first compound 10 µM
[19] = second compound 1 µM, first compound 0.0316 µM
[20] = second compound 1 µM, first compound 0.1 µM
[21] = second compound 1 µM, first compound 0.316 µM
[22] = second compound 1 µM, first compound 1 µM
[23] = second compound 1 µM, first compound 3.16 µM
[24] = second compound 1 µM, first compound 10 µM
[25] = second compound 3.16 µM, first compound 0.0316 µM
[26] = second compound 3.16 µM, first compound 0.1 µM
[27] = second compound 10 µM, first compound 0.0316 µM
[28] = second compound 10 µM, first compound 0.1 µM
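Note: spheroids exposed to agents for seven days before luminescence read.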
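Throughout, for viability, T/C: luminescent signal used as a stand-in for spheroid viability; percent viability relative to DMSO vehicle control wells taken as 100%.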

CCCS(=O)(=O)Nc1ccc(F)c(C(=O)c2c[nH]c3ncc(-c4ccc(Cl)cc4)cc23)c1F + CC(Nc1ccc2c(c1)OCCn1cc(N3C(=O)OCC3C(F)F)nc1-2)C(N)=O
pIC50 (second compound 0.00316 µM): 5.30
pIC50 (second compound 0.01 µM): 5.38
pIC50 (second compound 0.0316 µM): 5.47
pIC50 (second compound 0.1 µM): 5.86
pIC50 (second compound 0.316 µM): 6.20
pIC50 (second compound 1 µM): 6.45
viability, T/C (second compound 0.00316 µM, first compound 0.0316 µM): 93.5%
viability, T/C (second compound 0.00316 µM, first compound 0.1 µM): 89.6%
viability, T/C (second compound 0.00316 µM, first compound 0.316 µM): 98.9%
viability, T/C (second compound 0.00316 µM, first compound 1 µM): 88%
viability, T/C (second compound 0.00316 µM, first compound 3.16 µM): 71.9%
viability, T/C (second compound 0.00316 µM, first compound 10 µM): 17.3%
viability, T/C (second compound 0.01 µM, first compound 0.0316 µM): 100%
viability, T/C (second compound 0.01 µM, first compound 0.1 µM): 94.1%
viability, T/C (second compound 0.01 µM, first compound 0.316 µM): 86.9%
viability, T/C (second compound 0.01 µM, first compound 1 µM): 74.4%
viability, T/C (second compound 0.01 µM, first compound 3.16 µM): 67.9%
viability, T/C (second compound 0.01 µM, first compound 10 µM): 12.9%
viability, T/C [1]: 103%
viability, T/C [2]: 92.8%
viability, T/C [3]: 83.4%
viability, T/C [4]: 73.7%
viability, T/C [5]: 55.6%
viability, T/C [6]: 13.9%
viability, T/C [7]: 99%
viability, T/C [8]: 86.1%
viability, T/C [9]: 76.8%
viability, T/C [10]: 48.6%
viability, T/C [11]: 40.9%
viability, T/C [12]: 14.1%
viability, T/C [13]: 95.2%
viability, T/C [14]: 87.7%
viability, T/C [15]: 56.7%
viability, T/C [16]: 41.8%
viability, T/C [17]: 30.6%
viability, T/C [18]: 13.3%
viability, T/C [19]: 77.7%
viability, T/C [20]: 69.5%
viability, T/C [21]: 44.4%
viability, T/C [22]: 38.1%
viability, T/C [23]: 32.3%
viability, T/C [24]: 11.6%

CNC(=O)c1ccc(N2C(=S)N(c3ccc(C#N)c(C(F)(F)F)c3)C(=O)C2(C)C)cc1F + Cc1nc(NC(=O)N2CCCC2C(N)=O)sc1-c1ccnc(C(C)(C)C(F)(F)F)c1
pIC50 (second compound 0.0316 µM): < 5.00
pIC50 (second compound 0.1 µM): < 5.00
pIC50 (second compound 0.316 µM): < 5.00
pIC50 (second compound 1 µM): < 5.00
pIC50 (second compound 3.16 µM): < 5.00
pIC50 (second compound 10 µM): < 5.00
viability, T/C [1]: 104%
viability, T/C [2]: 94.4%
viability, T/C [3]: 101%
viability, T/C [4]: 102%
viability, T/C [5]: 107%
viability, T/C [6]: 113%
viability, T/C [7]: 96.9%
viability, T/C [8]: 100%
viability, T/C [9]: 109%
viability, T/C [10]: 98.4%
viability, T/C [11]: 104%
viability, T/C [12]: 104%
viability, T/C [13]: 107%
viability, T/C [14]: 101%
viability, T/C [15]: 117%
viability, T/C [16]: 99.1%
viability, T/C [17]: 113%
viability, T/C [18]: 93%
viability, T/C [19]: 100%
viability, T/C [20]: 96.3%
viability, T/C [21]: 105%
viability, T/C [22]: 101%
viability, T/C [23]: 104%
viability, T/C [24]: 95%
viability, T/C [25]: 91.1%
viability, T/C [26]: 89.4%
viability, T/C (second compound 3.16 µM, first compound 0.316 µM): 83.9%
viability, T/C (second compound 3.16 µM, first compound 1 µM): 77.7%
viability, T/C (second compound 3.16 µM, first compound 3.16 µM): 88%
viability, T/C (second compound 3.16 µM, first compound 10 µM): 85.5%
viability, T/C [27]: 74.3%
viability, T/C [28]: 65.3%
viability, T/C (second compound 10 µM, first compound 0.316 µM): 69.4%
viability, T/C (second compound 10 µM, first compound 1 µM): 67.8%
viability, T/C (second compound 10 µM, first compound 3.16 µM): 73.8%
viability, T/C (second compound 10 µM, first compound 10 µM): 70.1%

Cn1ncnc1[C@H]1c2n[nH]c(=O)c3cc(F)cc(c23)N[C@@H]1c1ccc(F)cc1 + Cc1nc(NC(=O)N2CCCC2C(N)=O)sc1-c1ccnc(C(C)(C)C(F)(F)F)c1
pIC50 (second compound 0.0316 µM): < 7.00
pIC50 (second compound 0.1 µM): < 7.00
pIC50 (second compound 0.316 µM): < 7.00
pIC50 (second compound 1 µM): < 7.00
pIC50 (second compound 3.16 µM): < 7.00
pIC50 (second compound 10 µM): < 7.00
viability, T/C (second compound 0.0316 µM, first compound 0.000316 µM): 106%
viability, T/C (second compound 0.0316 µM, first compound 0.001 µM): 106%
viability, T/C (second compound 0.0316 µM, first compound 0.00316 µM): 101%
viability, T/C (second compound 0.0316 µM, first compound 0.01 µM): 108%
viability, T/C [1]: 111%
viability, T/C [2]: 96.7%
viability, T/C (second compound 0.1 µM, first compound 0.000316 µM): 104%
viability, T/C (second compound 0.1 µM, first compound 0.001 µM): 108%
viability, T/C (second compound 0.1 µM, first compound 0.00316 µM): 111%
viability, T/C (second compound 0.1 µM, first compound 0.01 µM): 101%
viability, T/C [7]: 101%
viability, T/C [8]: 102%
viability, T/C (second compound 0.316 µM, first compound 0.000316 µM): 102%
viability, T/C (second compound 0.316 µM, first compound 0.001 µM): 115%
viability, T/C (second compound 0.316 µM, first compound 0.00316 µM): 102%
viability, T/C (second compound 0.316 µM, first compound 0.01 µM): 103%
viability, T/C [13]: 105%
viability, T/C [14]: 98.8%
viability, T/C (second compound 1 µM, first compound 0.000316 µM): 96.6%
viability, T/C (second compound 1 µM, first compound 0.001 µM): 106%
viability, T/C (second compound 1 µM, first compound 0.00316 µM): 110%
viability, T/C (second compound 1 µM, first compound 0.01 µM): 83.9%
viability, T/C [19]: 101%
viability, T/C [20]: 99%
viability, T/C (second compound 3.16 µM, first compound 0.000316 µM): 81%
viability, T/C (second compound 3.16 µM, first compound 0.001 µM): 83%
viability, T/C (second compound 3.16 µM, first compound 0.00316 µM): 90.8%
viability, T/C (second compound 3.16 µM, first compound 0.01 µM): 87%
viability, T/C [25]: 91.8%
viability, T/C [26]: 83.6%
viability, T/C (second compound 10 µM, first compound 0.000316 µM): 70%
viability, T/C (second compound 10 µM, first compound 0.001 µM): 74.3%
viability, T/C (second compound 10 µM, first compound 0.00316 µM): 70.7%
viability, T/C (second compound 10 µM, first compound 0.01 µM): 66.7%
viability, T/C [27]: 67.7%
viability, T/C [28]: 76.9%
